Literature values in patent publication EP0956866A1, “DRUGS FOR AMELIORATING OPHTHALMIC CIRCULATORY DISTURBANCE” (KIRIN BEER KABUSHIKI KAISHA, priority 1996, dated 1998).

What was measured:
[1] = disclosed in WO89/10757
[2] = literature report

Compound	ocular pressure [1]	ocular blood flow [2]
CC1(C)Oc2ccc(C#N)cc2C(N2CCCC2=O)C1O (stereo not drawn) [cromakalim]	lower the ocular pressure	lowers the ocular blood flow
CC(N/C(=N\C#N)Nc1ccncc1)C(C)(C)C (stereo not drawn) [pinacidil]	lower the ocular pressure	–
